Tests used:
soybean [1] = test: Test C postemergence; type: in vivo, Glycine max; settings: 10 days, 0 to 100 scale (0 no effect, 100 complete control)
In short: (§1)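 Seeds sown in loam soil–sand blend received a directed preemergence soil spray of test chemical in non-phytotoxic solvent with surfactant; postemergence plants (2–10 cm, one- to two-leaf stage) were sprayed with the same formulation. Greenhouse-held 10 days, then visually rated for injury versus untreated controls, 0 (no effect) to 100 (complete control).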

barnyardgrass [2] = test: Test C postemergence; type: in vivo, Echinochloa crusgalli; settings: 10 days, 0 to 100 scale (0 no effect, 100 complete control)
In short: as §1

corn [3] = test: Test C postemergence; type: in vivo, Zea mays; settings: 10 days, 0 to 100 scale (0 no effect, 100 complete control)
In short: as §1

blackgrass [4] = test: Test C postemergence; type: in vivo, Alopecurus myosuroides; settings: 10 days, 0 to 100 scale (0 no effect, 100 complete control)
In short: as §1

kochia [5] = test: Test C postemergence; type: in vivo, Bassia scoparia; settings: 10 days, 0 to 100 scale (0 no effect, 100 complete control)
In short: as §1

foxtail, giant [6] = test: Test C preemergence; type: in vivo, Setaria faberi
Text: (§2) Seeds of plant species selected from barnyardgrass (Echinochloa crusgalli), blackgrass (Alopecurus myosuroides), corn (Zea mays), foxtail, giant (giant foxtail, Setaria faberi), green foxtail (Setaria viridis), goosegrass (Eleusine indica), kochia (Bassia scoparia), oat, wild (wild oat, Avena fatua), pigweed, palmer (palmer amaranth, palmer pigweed, Amaranthus palmeri), Pigweed, Redroot (redroot pigweed, Amaranthus retroflexus), ragweed (common ragweed, Ambrosia artemisiifolia), ryegrass, Italian ([…] ryegrass, Lolium multiflorum), soybean (Glycine max), and wheat (Triticum aestivum) were planted into a blend of loam soil and sand and treated preemergence with a directed soil spray using test chemicals formulated in a non-phytotoxic solvent mixture which included a surfactant. At the same time, plants selected from these crops and weed species and also galium (catchweed bedstraw, Galium aparine) and horseweed (Erigeron canadensis) were planted in pots containing the same blend of loam soil and sand and treated with postemergence applications of test chemicals formulated in the same manner. Plants ranged in height from 2 to 10 cm and were in the one- to two-leaf stage for the postemergence treatment. Treated plants and untreated controls were maintained in a greenhouse for 10 days, after which time all treated plants were compared to untreated controls and visually evaluated for injury. Plant response ratings, summarized in Table C, are based on a 0 to 100 scale where 0 is no effect and 100 is complete control. A dash (-) response means no test result.

oat, wild [7] = test: Test C preemergence; type: in vivo, Avena fatua
In short: as §1

soybean [8] = test: Test C preemergence; type: in vivo, Glycine max
In short: as §1

foxtail, giant [9] = test: Test C postemergence; type: in vivo, Setaria faberi; settings: 10 days, 0 to 100 scale (0 no effect, 100 complete control)
Text: as §2

horseweed = test: Test C postemergence; type: in vivo, Erigeron canadensis; settings: 10 days, 0 to 100 scale (0 no effect, 100 complete control)
In short: as §1

barnyardgrass [10] = test: Test C preemergence; type: in vivo, Echinochloa crusgalli
In short: as §1

galium = test: Test C postemergence; type: in vivo, Galium aparine; settings: 10 days, 0 to 100 scale (0 no effect, 100 complete control)
In short: as §1

wheat [11] = test: Test C postemergence; type: in vivo, Triticum aestivum; settings: 10 days, 0 to 100 scale (0 no effect, 100 complete control)
In short: as §1

oat, wild [12] = test: Test C postemergence; type: in vivo, Avena fatua; settings: 10 days, 0 to 100 scale (0 no effect, 100 complete control)
In short: as §1

pigweed, palmer [13] = test: Test C preemergence; type: in vivo, Amaranthus palmeri
In short: as §1

pigweed, palmer [14] = test: Test C postemergence; type: in vivo, Amaranthus palmeri; settings: 10 days, 0 to 100 scale (0 no effect, 100 complete control)
In short: as §1

ducksalad = test: Test D flooded paddy test; type: in vivo, Heteranthera limosa; settings: 250 g ai/ha, applied to paddy water, visual rating after 13 to 14 days, scale 0 to 100 (0 no effect, 100 complete control)
In short: (§3)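 Compounds go straight into paddy water over 2-leaf plants in pots flooded to 3 cm. Greenhouse holding lasts 13 to 14 days. Injury is scored by eye against controls from 0 (none) to 100 (complete control).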

kochia [15] = test: Test C preemergence; type: in vivo, Bassia scoparia
In short: as §1

barnyardgrass [16] = test: Test D flooded paddy test; type: in vivo, Echinochloa crus-galli; settings: 250 g ai/ha, applied to paddy water, visual rating after 13 to 14 days, scale 0 to 100 (0 no effect, 100 complete control)
In short: as §3

rice = test: Test D flooded paddy test; type: in vivo, Oryza sativa; settings: 250 g ai/ha, applied to paddy water, visual rating after 13 to 14 days, scale 0 to 100 (0 no effect, 100 complete control)
In short: as §3

ragweed [17] = test: Test C preemergence; type: in vivo, Ambrosia artemisiifolia
In short: as §1

ryegrass, Italian [18] = test: Test C preemergence; type: in vivo, Lolium multiflorum
In short: as §1

ragweed [19] = test: Test C postemergence; type: in vivo, Ambrosia artemisiifolia; settings: 10 days, 0 to 100 scale (0 no effect, 100 complete control)
In short: as §1

corn [20] = test: Test C preemergence; type: in vivo, Zea mays
In short: as §1

wheat [21] = test: Test C preemergence; type: in vivo, Triticum aestivum
In short: as §1

ryegrass, Italian [22] = test: Test C postemergence; type: in vivo, Lolium multiflorum; settings: 10 days, 0 to 100 scale (0 no effect, 100 complete control)
In short: as §1

sedge, umbrella = test: Test D flooded paddy test; type: in vivo, Cyperus difformis; settings: 250 g ai/ha, applied to paddy water, visual rating after 13 to 14 days, scale 0 to 100 (0 no effect, 100 complete control)
In short: as §3

blackgrass [23] = test: Test C preemergence; type: in vivo, Alopecurus myosuroides
In short: as §1

[24] = 500 g ai/ha, preemergence, 0 to 100 scale (0 no effect, 100 complete control)
[25] = Preemergence, 125 g ai/ha, 0 to 100 scale, 0 no effect, 100 complete control

## Cc1ncnn1-c1cc(C(=O)N2CC(C(F)(F)F)Oc3c(Cl)cccc32)ccn1 (racemic) [Compound 333]
Soybean [1]; 500 g ai/ha, postemergence
  Plant response rating, Soybean: 50
Soybean [1]; Postemergence, 125 g ai/ha
  Plant response rating, Soybean: 50
Barnyardgrass [2]; 500 g ai/ha, postemergence
  Plant response rating, Barnyardgrass: 10
Barnyardgrass [2]; Postemergence, 125 g ai/ha
  Plant response rating, Barnyardgrass: 10
Corn [3]; 500 g ai/ha, postemergence
  Plant response rating, Corn: 20
Corn [3]; Postemergence, 125 g ai/ha
  Plant response rating, Corn: 10
Blackgrass [4]; 500 g ai/ha, postemergence
  Plant response rating, Blackgrass: 20
Blackgrass [4]; Postemergence, 125 g ai/ha
  Plant response rating, Blackgrass: 0
Kochia [5]; 500 g ai/ha, postemergence
  Plant response rating, Kochia: 50
Kochia [5]; Postemergence, 125 g ai/ha
  Plant response rating, Kochia: 30
foxtail, giant [6]; [24]
  Foxtail, Giant plant response rating: 80
foxtail, giant [6]; [25]
  Plant response rating, Foxtail, Giant: 0
oat, wild [7]; [24]
  Oat, Wild plant response rating: 0
oat, wild [7]; [25]
  Plant response rating, Oat, Wild: 0
Soybean [8]; [24]
  Soybean plant response rating: 0
Soybean [8]; [25]
  Plant response rating, Soybean: 0
foxtail, giant [9]; 500 g ai/ha, postemergence
  Plant response rating, Foxtail, Giant: 40
foxtail, giant [9]; Postemergence, 125 g ai/ha
  Plant response rating, Foxtail, Giant: 20
horseweed; 500 g ai/ha, postemergence
  Plant response rating, Horseweed: 0
horseweed; Postemergence, 125 g ai/ha
  Plant response rating, Horseweed: 0
Barnyardgrass [10]; [24]
  Barnyardgrass plant response rating: 0
Barnyardgrass [10]; [25]
  Plant response rating, Barnyardgrass: 0
galium; 500 g ai/ha, postemergence
  Plant response rating, Galium: 60
galium; Postemergence, 125 g ai/ha
  Plant response rating, Galium: 0
Wheat [11]; 500 g ai/ha, postemergence
  Plant response rating, Wheat: 10
Wheat [11]; Postemergence, 125 g ai/ha
  Plant response rating, Wheat: 10
oat, wild [12]; 500 g ai/ha, postemergence
  Plant response rating, Oat, Wild: 0
oat, wild [12]; Postemergence, 125 g ai/ha
  Plant response rating, Oat, Wild: 0
pigweed, palmer [13]; [24]
  Pigweed, Palmer plant response rating: 30
pigweed, palmer [13]; [25]
  Plant response rating, Pigweed, Palmer: 0
pigweed, palmer [14]; 500 g ai/ha, postemergence
  Plant response rating, Pigweed, Palmer: 20
pigweed, palmer [14]; Postemergence, 125 g ai/ha
  Plant response rating, Pigweed, Palmer: 0
ducksalad
  Plant response rating, Ducksalad (Flood): 0
Kochia [15]; [24]
  Kochia plant response rating: 10
Kochia [15]; [25]
  Plant response rating, Kochia: 0
Barnyardgrass [16]
  Plant response rating, Barnyardgrass (Flood): 0
rice
  Plant response rating, Rice (Flood): 0
Ragweed [17]; [24]
  Ragweed plant response rating: 0
Ragweed [17]; [25]
  Plant response rating, Ragweed: 0
ryegrass, Italian [18]; [24]
  Ryegrass, Italian plant response rating: 40
ryegrass, Italian [18]; [25]
  Plant response rating, Ryegrass, Italian: 30
Ragweed [19]; 500 g ai/ha, postemergence
  Plant response rating, Ragweed: 10
Ragweed [19]; Postemergence, 125 g ai/ha
  Plant response rating, Ragweed: 0
Corn [20]; [24]
  Corn plant response rating: 0
Corn [20]; [25]
  Plant response rating, Corn: 0
Wheat [21]; [24]
  Wheat plant response rating: 0
Wheat [21]; [25]
  Plant response rating, Wheat: 0
ryegrass, Italian [22]; 500 g ai/ha, postemergence
  Plant response rating, Ryegrass, Italian: 10
ryegrass, Italian [22]; Postemergence, 125 g ai/ha
  Plant response rating, Ryegrass, Italian: 0
sedge, umbrella
  Plant response rating, Sedge, Umbrella (Flood): 0
Blackgrass [23]; [24]
  Blackgrass plant response rating: 0
Blackgrass [23]; [25]
  Plant response rating, Blackgrass: 0

From patent US20260262643A1, “HERBICIDAL BENZOXAZINES” (FMC CORPORATION, priority 2022, published 2026)
